The subject of this test is cultured dorsal root ganglia (DRG) cells. It counts as cell-based, mouse.

Turning to `CCCCCCCCC(=O)NCc1ccc(O)c(OC)c1` [VNA, N-vanillyl nonanamide, reference compound], under “single DRG neuron, via TRPV1 channels”, the “electrophysiological response (extracellular potential) on topical application” value was “strong and immediate electrophysiological response”.

`CCCCCCCCC(=O)NCc1ccc(OCc2ccc3ccc(O)c(Br)c3n2)c(OC)c1` [BHQ-VNA]: the “electrophysiological response after light pulse” value is on record as “immediate potential change is observed that is indistinguishable from the VNA trace” and the “electrophysiological response, bath applied, without light” value is “does not have any affect”.

The values are drawn from US20140155362A1, “BHQ-CONJUGATES, AND RELATED COMPOUNDS, METHODS OF MAKING THE SAME, AND METHODS OF USE THEREOF” (priority 2011, published 2014).
